The series is described as follows: xn = mol fraction of the nth substance listed. The following applies: x2 = 0; for surface tension liquid-gas: Pendant drop shape; for viscosity: 101 kPa, Liquid, Concentric cylinders viscometry.

Molecules are shown by their SMILES. ± gives the expanded uncertainty stated by the source.

By surface tension liquid-gas is commonly meant the work needed to enlarge the surface of a liquid by unit area. What is called viscosity is the internal friction of a fluid under shear.

On to `CCCCCO` [pentan-1-ol] + CCn1cc[n+](C)c1.COS(=O)(=O)[O-], for which the surface tension liquid-gas is 24.7 ± 0.6 mN/m (298.15 K), 24.3 ± 0.5 mN/m (303.15 K), 23.9 ± 0.5 mN/m (308.15 K) and 23.5 ± 0.5 mN/m (313.15 K). In addition, the viscosity stood at 3.51 ± 0.21 mPa·s (298.15 K), 2.84 ± 0.17 mPa·s (303.15 K), 2.64 ± 0.16 mPa·s (308.15 K) and 2.34 ± 0.14 mPa·s (313.15 K).
Turning to `CCCCCO` [pentan-1-ol] + COS(=O)(=O)[O-].Cn1cc[n+](C)c1, the surface tension liquid-gas reads like this: (298.15 K) 24.7 ± 0.6 mN/m; (303.15 K) 24.3 ± 0.5 mN/m; (308.15 K) 23.9 ± 0.5 mN/m; (313.15 K) 23.5 ± 0.5 mN/m. For the same compound, the viscosity reads like this: (298.15 K) 3.51 ± 0.21 mPa·s; (303.15 K) 2.84 ± 0.17 mPa·s; (308.15 K) 2.64 ± 0.16 mPa·s; (313.15 K) 2.34 ± 0.14 mPa·s.
As to `CCCO` [propan-1-ol] + CCn1cc[n+](C)c1.COS(=O)(=O)[O-], the surface tension liquid-gas by setting is: (298.15 K) 23.2 ± 0.5 mN/m; (303.15 K) 22.8 ± 0.5 mN/m; (308.15 K) 22.3 ± 0.5 mN/m; (313.15 K) 21.9 ± 0.5 mN/m. Moreover, the viscosity (298.15 K) is recorded as 1.94 ± 0.12 mPa·s, the viscosity (303.15 K) is given as 1.72 ± 0.1 mPa·s, the viscosity (308.15 K) came to 1.54 ± 0.09 mPa·s and the viscosity (313.15 K) is given as 1.38 ± 0.08 mPa·s.
Take `CCCO` [propan-1-ol] + COS(=O)(=O)[O-].Cn1cc[n+](C)c1: the surface tension liquid-gas is 23.2 ± 0.5 mN/m (298.15 K), 22.8 ± 0.5 mN/m (303.15 K), 22.3 ± 0.5 mN/m (308.15 K) and 21.9 ± 0.5 mN/m (313.15 K). The viscosity reads like this: (298.15 K) 1.94 ± 0.12 mPa·s; (303.15 K) 1.72 ± 0.1 mPa·s; (308.15 K) 1.54 ± 0.09 mPa·s; (313.15 K) 1.38 ± 0.08 mPa·s.

(Values after the NIST ThermoML archive (doi:10.1021/acs.jced.8b00948).)
